# Results as given in the supplement of paper PMC10307832.
# Key:
# Assay in all cases: relative viability (nuclei count vs DMSO), 5 days (fraction); higher = more cells survive
# [1] = system: HCC-15
# Method in brief: (§1)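 Values are medians from duplicate plates. Each reflects relative viability, defined as the nuclei count of treated wells over that of vehicle wells. Lung cancer cell lines in 1536-well plates were pin-tool dosed one day after seeding with one drug alone or with a fixed anchor-drug dose plus five library-drug doses (not always all listed) in √10 steps, then fixed, stained and imaged at 4× after 5 days.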
# [2] = system: NCI-H1915
# Method in brief: as §1
# [3] = system: NCI-H2126
# Method in brief: as §1
# [4] = system: EMC-BAC-2
# Method in brief: as §1
# [5] = system: EKVX
# Method in brief: as §1
# [6] = system: HCC-827
# Method in brief: as §1
# [7] = system: LU99A
# Method in brief: as §1
# [8] = system: SK-LU-1
# Method in brief: as §1
# [9] = system: LCLC-97TM1
# Method in brief: as §1
# [10] = system: NCI-H661
# Method in brief: as §1
# [11] = system: NCI-H1944
# Method in brief: as §1
# [12] = system: ChaGo-K-1
# Method in brief: as §1
# [13] = system: H3255
# Method in brief: as §1
# [14] = system: NCI-H441
# Method in brief: as §1
# [15] = system: NCI-H1792
# Method in brief: as §1
# [16] = system: NCI-H460
# Method in brief: as §1
# [17] = system: LC-2-ad
# Method in brief: as §1
# [18] = system: NCI-H23
# Method in brief: as §1
# [19] = system: NCI-H1437
# Method in brief: as §1
# [20] = system: PC-3 [JPC-3]
# Method in brief: as §1
# [21] = system: HARA
# Method in brief: as §1
# [22] = system: NCI-H322M
# Method in brief: as §1
structure (smiles),measurement,setting,value
O=c1[nH]c2ccccc2n1C1CCN(CCCC(c2ccc(F)cc2)c2ccc(F)cc2)CC1 [Pimozide] + C[C@@H](Oc1cc(-c2cnn(C3CCNCC3)c2)cnc1N)c1c(Cl)ccc(F)c1Cl [Crizotinib] (partner 1 µM),relative viability,[1]; first compound 0.08 µM,0.835
same,relative viability,[1]; first compound 0.253 µM,0.771
same,relative viability,[1]; first compound 0.8 µM,0.724
same,relative viability,[1]; first compound 2.53 µM,0.761
same,relative viability,[1]; first compound 8 µM,0.797
same,relative viability,[2]; first compound 0.08 µM,0.971
same,relative viability,[2]; first compound 0.253 µM,0.863
same,relative viability,[2]; first compound 0.8 µM,0.709
same,relative viability,[2]; first compound 2.53 µM,0.863
same,relative viability,[2]; first compound 8 µM,0.784
same,relative viability,[3]; first compound 0.08 µM,1.06
same,relative viability,[3]; first compound 0.253 µM,0.976
same,relative viability,[3]; first compound 0.8 µM,0.976
same,relative viability,[3]; first compound 2.53 µM,1.02
same,relative viability,[3]; first compound 8 µM,1
same,relative viability,[4]; first compound 0.08 µM,0.752
same,relative viability,[4]; first compound 0.253 µM,0.79
same,relative viability,[4]; first compound 0.8 µM,0.691
same,relative viability,[4]; first compound 2.53 µM,0.616
same,relative viability,[4]; first compound 8 µM,0.691
same,relative viability,[5]; first compound 0.253 µM,0.949
same,relative viability,[5]; first compound 0.8 µM,0.895
same,relative viability,[5]; first compound 2.53 µM,0.865
same,relative viability,[5]; first compound 8 µM,0.876
same,relative viability,[6]; first compound 0.253 µM,0.887
same,relative viability,[6]; first compound 0.8 µM,0.826
same,relative viability,[6]; first compound 2.53 µM,0.936
same,relative viability,[6]; first compound 8 µM,0.885
same,relative viability,[7]; first compound 0.08 µM,0.497
same,relative viability,[7]; first compound 0.253 µM,0.521
same,relative viability,[7]; first compound 0.8 µM,0.548
same,relative viability,[7]; first compound 2.53 µM,0.612
same,relative viability,[7]; first compound 8 µM,0.61
same,relative viability,[8]; first compound 0.08 µM,0.895
same,relative viability,[8]; first compound 0.253 µM,0.792
same,relative viability,[8]; first compound 0.8 µM,0.912
same,relative viability,[8]; first compound 2.53 µM,0.786
same,relative viability,[8]; first compound 8 µM,0.769
same,relative viability,[9]; first compound 0.08 µM,0.337
same,relative viability,[9]; first compound 0.253 µM,0.356
same,relative viability,[9]; first compound 0.8 µM,0.296
same,relative viability,[9]; first compound 2.53 µM,0.424
same,relative viability,[9]; first compound 8 µM,0.413
same,relative viability,[10]; first compound 0.08 µM,0.975
same,relative viability,[10]; first compound 0.8 µM,0.921
same,relative viability,[10]; first compound 2.53 µM,0.995
same,relative viability,[10]; first compound 8 µM,0.962
same,relative viability,[11]; first compound 0.08 µM,0.992
same,relative viability,[11]; first compound 0.253 µM,1.03
same,relative viability,[11]; first compound 0.8 µM,1.05
same,relative viability,[11]; first compound 2.53 µM,0.967
same,relative viability,[11]; first compound 8 µM,0.939
same,relative viability,[12]; first compound 0.08 µM,1.18
same,relative viability,[12]; first compound 0.253 µM,1.04
same,relative viability,[12]; first compound 0.8 µM,1.15
same,relative viability,[12]; first compound 2.53 µM,1.02
same,relative viability,[12]; first compound 8 µM,0.944
same,relative viability,[13]; first compound 0.253 µM,0.801
same,relative viability,[13]; first compound 0.8 µM,0.764
same,relative viability,[13]; first compound 2.53 µM,0.983
same,relative viability,[13]; first compound 8 µM,0.875
same,relative viability,[14]; first compound 0.08 µM,0.608
same,relative viability,[14]; first compound 0.253 µM,0.646
same,relative viability,[14]; first compound 0.8 µM,0.652
same,relative viability,[14]; first compound 2.53 µM,0.568
same,relative viability,[14]; first compound 8 µM,0.693
same,relative viability,[15]; first compound 0.08 µM,0.95
same,relative viability,[15]; first compound 0.253 µM,0.944
same,relative viability,[15]; first compound 0.8 µM,0.937
same,relative viability,[15]; first compound 2.53 µM,0.937
same,relative viability,[15]; first compound 8 µM,0.971
same,relative viability,[16]; first compound 0.08 µM,0.841
same,relative viability,[16]; first compound 0.253 µM,0.671
same,relative viability,[16]; first compound 0.8 µM,0.899
same,relative viability,[16]; first compound 2.53 µM,0.871
same,relative viability,[16]; first compound 8 µM,0.89
same,relative viability,[17]; first compound 0.08 µM,0.474
same,relative viability,[17]; first compound 0.253 µM,0.441
same,relative viability,[17]; first compound 0.8 µM,0.403
same,relative viability,[17]; first compound 2.53 µM,0.466
same,relative viability,[17]; first compound 8 µM,0.479
same,relative viability,[18]; first compound 0.08 µM,0.625
same,relative viability,[18]; first compound 0.253 µM,0.482
same,relative viability,[18]; first compound 0.8 µM,0.517
same,relative viability,[18]; first compound 2.53 µM,0.573
same,relative viability,[18]; first compound 8 µM,0.524
same,relative viability,[19]; first compound 0.08 µM,0.949
same,relative viability,[19]; first compound 0.253 µM,0.878
same,relative viability,[19]; first compound 0.8 µM,0.898
same,relative viability,[19]; first compound 2.53 µM,0.903
same,relative viability,[19]; first compound 8 µM,0.751
same,relative viability,[20]; first compound 0.253 µM,0.878
same,relative viability,[20]; first compound 0.8 µM,0.91
same,relative viability,[20]; first compound 2.53 µM,0.915
same,relative viability,[20]; first compound 8 µM,0.854
same,relative viability,[21]; first compound 0.08 µM,0.991
same,relative viability,[21]; first compound 0.253 µM,1.07
same,relative viability,[21]; first compound 0.8 µM,1.01
same,relative viability,[21]; first compound 2.53 µM,0.927
same,relative viability,[21]; first compound 8 µM,0.961
same,relative viability,[22]; first compound 0.253 µM,0.805
same,relative viability,[22]; first compound 0.8 µM,0.846
same,relative viability,[22]; first compound 2.53 µM,0.832
same,relative viability,[22]; first compound 8 µM,0.943
